Test system: WT R-mRNA+30 (I-2S8) (RNA, riboswitch) GGGCAGUGAGCAACAAAAUGCUCACCUGGGUCGCAGUAACCCCAGUUAACAAAACAAGGGAGGUAAUUUUGUGCCCAAAAAAAGAAUAAAAGAUUUAGCU
Assay: single-molecule TIRF (SiM-KARB), 30S binding/dissociation rates vs preQ1, global Hill fit
Details: K+ 100 mM, Mg2+ 5 mM, NH4+ 5 mM, Ca2+ 0.5 mM; apparent; Tris-polymix pH 7.5, spermidine, putrescine; 20 nM Cy5-30S ribosomal subunits present; indirect readout

## NCc1c[nH]c2nc(N)[nH]c(=O)c12
  K1/2: ~ 48 nM
